Test results reported in patent CN106420773A, “一种治疗放射性肠炎的中西药组合物及其制备方法和应用” (Zhengzhou Lidiya Medicine Technology Co Ltd, priority 2016, dated 2017).

Experiment: Clinical trial in patients receiving pelvic radiotherapy (radiation enteritis)
Type: in vivo, human
Settings: once daily, 10 days, with conventional radiotherapy
[1] = number of patients of 50 per group

CC(O)C(=O)[O-].CC(O)C(=O)[O-].[Ca+2] (stereo not shown) [对比例2, 乳酸钙]
total effective rate (50 patients per group): 4%
cured [1]: 0
improved [1]: 2
ineffective [1]: 48
